In patent US9249448B2 (priority 2010, dated 2016):

Target: protein of SEQ ID NO 1 (yxel gene product) (Bacillus subtilis, UniProt P54948, G69A/I70F/P219S/T91M)
Details: sodium acetate 100 mM final concentration; substrate 0.2 mg/ml, 37°, 15 min, PBS buffer; compared with background activity of plasmid-free E. coli strain
Description: Cells obtained as in example 2 were harvested by centrifugation and washed twice with PBS buffer to remove residual medium components. The final cell pellet was resuspended in PBS buffer (per liter water: 8 g NaCl, 0.2 g KCl, 1.44 g Na2HPO4, 0.24 g K H2PO4, pH 7.4) to reach a final OD600 of 30. This cell suspension of strains (either without plasmid or carrying the expression vectors described in Example 1) was used for the activity tests. The washed cell suspensions were contacted in PBS buffer with N-alpha-lauryl-glutamin (0.2 mg/ml final concentration, “LG” in FIG. 35), at 37° (final volume 0.25 ml) for 15 min. The actual test was performed as described in example 7 of WO 02/092024 A2, with GC as the test method.

protein of SEQ ID NO 1 (yxel gene product), sequence (P54948 whole entry G69A/I70F/T91M/P219S): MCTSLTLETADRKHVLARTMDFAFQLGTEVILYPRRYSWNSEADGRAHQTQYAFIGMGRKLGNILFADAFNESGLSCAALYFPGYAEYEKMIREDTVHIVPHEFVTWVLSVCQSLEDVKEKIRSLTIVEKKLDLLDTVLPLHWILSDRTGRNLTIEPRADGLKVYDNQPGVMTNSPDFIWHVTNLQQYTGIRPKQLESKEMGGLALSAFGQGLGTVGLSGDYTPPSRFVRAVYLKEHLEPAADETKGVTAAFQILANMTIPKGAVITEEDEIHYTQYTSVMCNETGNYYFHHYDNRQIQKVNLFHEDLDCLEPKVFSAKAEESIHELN

CC(=O)[O-].[Na+] [sodium acetate]
enzyme activity (inhibition of N-alpha-lauryl-glutamin cleavage): inhibited to the level of the background activity
